Three compounds from publication PMC11946893 (Nature, 2025) can be followed below.

The subject of one series is S. typhimurium. As to the kind of experiment: Intracellular infection assay. In kind it is cell-based, S. typhimurium SL1344 in A549 cells. As to conditions: A549 cells expressing dTAG–PPP1CB pre-incubated 1 h with dTAG^V-1.
A further series deals with S. enterica. As to the kind of experiment: Bacterial growth in conditioned medium. In kind it is cell-based, Salmonella enterica.
A further series relates to M. luteus. Put plainly: Intracellular infection assay. As to conditions: A549 cells expressing dTAG–PPP1CB pre-incubated 1 h with dTAG^V-1. It is filed as cell-based, M. luteus in A549 cells.
The next series deals with CaCo-2 monolayer. As to the kind of experiment: TEER assay, CaCo-2 monolayer cocultured with P. aeruginosa. In kind it is cell-based, human. Conditions: P. aeruginosa coculture, 6 h, n = 3.

The structures appear in SMILES notation. Peptide text beside a SMILES is read from it.

Take `CC[C@H](C(=O)N1CCCC[C@H]1C(=O)O[C@H](CCc1ccc(OC)c(OC)c1)c1ccccc1OCC(=O)NCCCCCCC(=O)N[C@H](C(=O)N1C[C@H](O)C[C@H]1C(=O)N[C@@H](C)c1ccc(-c2scnc2C)cc1)C(C)(C)C)c1cc(OC)c(OC)c(OC)c1` [dTAG^V-1]: the “intracellular bacterial infection (CFU counts, imaging)” value in the series on S. typhimurium is recorded as “attenuated intracellular bacterial infection significantly”. Further, the “reduction of bacterial growth in conditioned medium” value in the series with S. enterica (A549 cells expressing dTAG–PPP1CB, 500 nM dTAG^V-1 for 6 h vs DMSO) is reported as 20%. Besides, in the series on M. luteus, the “intracellular bacterial infection (CFU counts)” value is listed as “attenuated intracellular bacterial infection significantly”.
For `CC(=O)N[C@@H](CC(C)C)C(=O)N[C@@H](CC(C)C)C(=O)N[C@H](C=O)CCCNC(=N)N` [leupeptin], in the series on S. enterica (medium from cells treated with leupeptin 20 µM for 6 h), the “bacterial growth in conditioned medium” value is reported as “increase in bacterial growth”.
As to `CC[C@H](C)[C@H](NC(=O)[C@H](CC(N)=O)NC(=O)[C@H](Cc1ccccc1)NC(=O)[C@H](CCCNC(=N)N)NC(=O)[C@H](CCCNC(=N)N)NC(=O)[C@@H](N)CCCCN)C(=O)N[C@@H](CCCCN)C(=O)N[C@@H](CC(C)C)C(=O)N[C@@H](Cc1c[nH]c2ccccc12)C(=O)N[C@@H](CCCCN)C(=O)N[C@H](C(=O)N[C@@H](Cc1ccccc1)C(=O)O)[C@@H](C)O` [PPP1CB] (H-KRRFNIKLWKTF-OH), the “disruption of CaCo-2 barrier integrity by P. aeruginosa (TEER barrier index)” value with CaCo-2 monolayer is “fully abolished”.
